The numbers were not newly measured in patent publication US20170172144A1, “ECTOPARASITE FORMULATION” (priority 2014, published 2017), which cites them from elsewhere.

Counter-ions that a name gives are not always drawn.

For the data set the following is noted: qualitative statement.
With `c1ccc([C@H]2CN3CCSC3=N2)cc1` [levamisole hydrochloride, Levamisole hydrochloride], the aqueous solubility entry is “soluble”.

As for `COC(=O)Nc1nc2ccc([S+]([O-])c3ccccc3)cc2[nH]1` (stereo not drawn) [oxfendazole, Oxfendazole], the aqueous solubility entry is recorded as “relatively low solubility”.

Take Abamectin: the aqueous solubility entry is listed as “relatively low solubility”.
